From patent publication US11051515B2, “3-acyl-benzamides and their use as herbicides” (Bayer Aktiengesellschaft, priority 2017, dated 2021)

Assays:
AMARE [1] = assay: Pre-emergence action against AMARE; assay type: in vivo, Amaranthus retroflexus; details: pre-emergence, dosage 320 g/ha, scored visually after 3 weeks vs untreated controls
In short: (§1)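 Seeds sown in sandy loam in wood-fiber pots and covered with soil. Greenhouse growth; visual damage scored after 3 weeks versus untreated controls (100% = dead, 0% = like control).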

AVEFA [2] = assay: Pre-emergence action against AVEFA; assay type: in vivo, Avena fatua; details: dosage 320 g/ha, scored visually after 3 weeks vs untreated controls
In short: as §1

VIOTR [3] = assay: Pre-emergence action against VIOTR; assay type: in vivo, Viola tricolor; details: Dosage 320 g/ha, pre-emergence
In short: as §1

AMARE [4] = assay: Post-emergence action against AMARE; assay type: in vivo, Amaranthus retroflexus; details: post-emergence, dosage 80 g/ha, visual assessment about 3 weeks after treatment vs untreated controls
In short: (§2)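 Weeds grown in sandy loam in greenhouse, treated at one-leaf stage (2–3 weeks after sowing) with WP or EC formulations sprayed as aqueous suspension/emulsion at 600 to […] water with 0.2% wetting agent. Visual rating after about 3 weeks versus untreated controls, as % herbicidal action (100% = plants dead, 0% = like control).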

DIGSA = assay: Pre-emergence action against DIGSA; assay type: in vivo, Digitaria sanguinalis; details: dosage 320 g/ha, scored visually after 3 weeks vs untreated controls
Text: Seeds of monocotyledonous and dicotyledonous weed plants and crop plants are laid out in sandy loam soil in wood-fiber pots and covered with soil. The compounds of the invention, formulated in the form of wettable powders (WP) or as emulsion concentrates (EC), are then applied to the surface of the covering soil in the form of an aqueous suspension or emulsion at a water application rate equating to […], with addition of 0.2% wetting agent. After the treatment, the pots are placed in a greenhouse and kept under good growth conditions for the trial plants. The damage to the test plants is scored visually after a test period of 3 weeks by comparison with untreated controls (herbicidal activity in percent (%): 100% activity=the plants have died, 0% activity=like control plants).

ABUTH [5] = assay: Post-emergence action against ABUTH; assay type: in vivo, Abutilon theophrasti; details: post-emergence, dosage 80 g/ha, visual assessment about 3 weeks after treatment vs untreated controls
In short: as §2

STEME [6] = assay: Post-emergence action against STEME; assay type: in vivo, Stellaria media; details: post-emergence, dosage 80 g/ha
In short: as §2

STEME [7] = assay: Pre-emergence action against STEME; assay type: in vivo, Stellaria media; details: Dosage 320 g/ha, pre-emergence
In short: as §1

VERPE = assay: Pre-emergence action against VERPE; assay type: in vivo, Veronica persica; details: Dosage 320 g/ha, pre-emergence
In short: as §1

ABUTH [8] = assay: Pre-emergence action against ABUTH; assay type: in vivo, Abutilon theophrasti; details: pre-emergence, dosage 320 g/ha, scored visually after 3 weeks vs untreated controls
In short: as §1

MATIN [9] = assay: Pre-emergence action against MATIN; assay type: in vivo, Matricaria inodora; details: Dosage 320 g/ha, pre-emergence
In short: as §1

MATIN [10] = assay: Post-emergence action against MATIN; assay type: in vivo, Matricaria inodora; details: post-emergence, dosage 80 g/ha, visual assessment about 3 weeks after treatment vs untreated controls
In short: as §2

PHBPU [11] = assay: Post-emergence action against PHBPU; assay type: in vivo, Pharbitis purpurea; details: post-emergence, dosage 80 g/ha
In short: as §2

ECHCG [12] = assay: Post-emergence action against ECHCG; assay type: in vivo, Echinochloa crus-galli; details: post-emergence, dosage 80 g/ha, visual assessment about 3 weeks after treatment vs untreated controls
In short: as §2

SETVI = assay: Pre-emergence action against SETVI; assay type: in vivo, Setaria viridis; details: pre-emergence, dosage 320 g/ha, scored visually after 3 weeks vs untreated controls
In short: as §1

PHBPU [13] = assay: Pre-emergence action against PHBPU; assay type: in vivo, Pharbitis purpurea; details: Dosage 320 g/ha, pre-emergence
In short: as §1

VIOTR [14] = assay: Post-emergence action against VIOTR; assay type: in vivo, Viola tricolor; details: post-emergence, dosage 80 g/ha
In short: as §2

ECHCG [15] = assay: Pre-emergence action against ECHCG; assay type: in vivo, Echinochloa crus-galli; details: pre-emergence, dosage 320 g/ha, scored visually after 3 weeks vs untreated controls
In short: as §1

AVEFA [16] = assay: Post-emergence action against AVEFA; assay type: in vivo, Avena fatua; details: post-emergence, dosage 80 g/ha, visual assessment about 3 weeks after treatment vs untreated controls
In short: as §2

Compound | Pre-emergence action against AMARE (herbicidal activity) (AMARE [1]) [%] | Pre-emergence action against AVEFA (herbicidal activity) (AVEFA [2]) [%] | Pre-emergence action against VIOTR (VIOTR [3]) [%] | Post-emergence action against AMARE (herbicidal action in percent) (AMARE [4]) [%] | Pre-emergence action against DIGSA (herbicidal activity) (DIGSA) [%] | Post-emergence action against ABUTH (herbicidal action in percent) (ABUTH [5]) [%] | Post-emergence action against STEME (STEME [6]) | Pre-emergence action against STEME (STEME [7]) [%] | Pre-emergence action against VERPE (VERPE) [%] | Pre-emergence action against ABUTH (herbicidal activity) (ABUTH [8]) [%] | Pre-emergence action against MATIN (MATIN [9]) [%] | Post-emergence action against MATIN (herbicidal action in percent) (MATIN [10]) [%] | Post-emergence action against PHBPU (PHBPU [11]) | Post-emergence action against ECHCG (herbicidal action in percent) (ECHCG [12]) [%] | SETVI (Table B8, pre-emergence herbicidal activity) (SETVI) [%] | Pre-emergence action against PHBPU (PHBPU [13]) [%] | Post-emergence action against VIOTR (VIOTR [14]) | Pre-emergence action against ECHCG (herbicidal activity) (ECHCG [15]) [%] | Post-emergence action against AVEFA (herbicidal action in percent) (AVEFA [16]) [%]
CSc1c(C(=O)Nc2nnnn2C)ccc(C(F)(F)F)c1C(=O)C1CCCCC1 [1-286] | 100 | 90 | 100 | 90 | 100 | 90 | 90 | 90 | 90 | 100 | 90 |  |  |  |  |  |  |  | 
Cn1nnnc1NC(=O)c1ccc(C(F)(F)F)c(C(=O)C2CCCCC2)c1Cl [1-155] | 80 |  | 100 | 90 | 90 | 90 | 80 | 90 |  | 100 | 90 | 80 | 80 |  |  |  |  |  | 
CCCn1nnnc1NC(=O)c1ccc(C(F)(F)F)c(C(=O)C(F)F)c1Cl [3-163] | 100 |  | 100 | 100 | 100 | 80 | 100 | 90 |  | 100 | 100 | 90 | 90 | 80 | 100 | 80 | 80 |  | 
Cn1nnnc1NC(=O)c1ccc(C(F)(F)F)c(C(=O)c2cc(F)cc(F)c2)c1Cl [1-287] | 100 |  | 100 | 90 | 80 | 80 |  |  | 100 | 100 |  |  | 90 | 90 |  |  | 90 | 80 | 80
